This assay has as its target T1, human mAChR M4 (Homo sapiens, UniProt P08173).
T1 construct: expressed in transfected cells
T1 sequence (P08173 1-479): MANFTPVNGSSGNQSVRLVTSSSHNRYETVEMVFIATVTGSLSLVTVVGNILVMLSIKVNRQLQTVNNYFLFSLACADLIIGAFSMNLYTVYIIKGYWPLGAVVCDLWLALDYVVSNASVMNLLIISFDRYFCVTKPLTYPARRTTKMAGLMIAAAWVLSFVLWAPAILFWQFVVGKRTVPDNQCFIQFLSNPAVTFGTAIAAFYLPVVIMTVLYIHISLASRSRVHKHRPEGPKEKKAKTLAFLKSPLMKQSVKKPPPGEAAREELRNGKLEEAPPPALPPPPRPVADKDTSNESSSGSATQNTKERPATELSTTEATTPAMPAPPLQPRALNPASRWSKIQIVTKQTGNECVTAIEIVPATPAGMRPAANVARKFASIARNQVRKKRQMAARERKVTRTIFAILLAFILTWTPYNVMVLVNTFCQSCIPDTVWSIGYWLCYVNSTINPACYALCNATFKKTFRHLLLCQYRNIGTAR
Kind of assay: mAChR M4 cell-based functional assay (calcium mobilization, CHO-K1 hM4-Gqi5 cells). The note with it: for Emax at 30 µM: CHO-K1, % ACh maximum at 30 μM, human M4; for EC50: positive allosteric modulator activity, increase in the EC20 acetylcholine response, CHO-K1 hM4-Gqi5 cells, read-out: Human M4 EC50. Put shortly: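 Fluorescent calcium read-out (Fluo-4 AM, FDSS, 1 Hz) in hM4-Gqi5 CHO-K1 cells, 11-point 1:3 compound series. Agonism scored on compound addition, PAM activity as increase of the 144 s EC20 acetylcholine response, antagonism as decrease of the 230 s EC80 response; four-parameter logistic fits give EC50 and Emax.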

In the case of `Cc1cnccc1CNC(=O)c1cnc(N2CCc3ncc(Nc4ccnn4C)cc3C2)c(C)c1` [Example 474, 5-methyl-6-(3-((1-methyl-1H-pyrazol-5-yl)amino)-7,8-dihydro-1,6-naphthyridin-6(5H)-yl)-N-((3-methylpyridin-4-yl)methyl)nicotinamide], the Emax at 30 µM is 89% and the EC50 was 206 nM.
For `Cc1cnc2c(c1)CN(c1nnc(C(=O)NCc3cnc4ccccc4c3)c(C)c1C)CC2` [Example 471, 4,5-dimethyl-6-(3-methyl-7,8-dihydro-1,6-naphthyridin-6(5H)-yl)-N-(quinolin-3-ylmethyl)pyridazine-3-carboxamide] the same measures were 91% and 251 nM.
In the same order, the values of `Cc1ncc(-c2cnc3c(c2)CN(c2nnc(C#N)c(C)c2C)CC3)s1` [compound 293, 4,5-dimethyl-6-(3-(2-methylthiazol-5-yl)-7,8-dihydro-1,6-naphthyridin-6(5H)-yl)pyridazine-3-carbonitrile] are 85% and 354 nM.
For `Cc1cc(C)n(-c2cnc3c(c2)CN(c2ncc(C#N)cc2C)CC3)n1` [Example 346, 6-(3-(3,5-dimethyl-1H-pyrazol-1-yl)-7,8-dihydro-1,6-naphthyridin-6(5H)-yl)-5-methylnicotinonitrile] the same measures were 88% and 1300 nM.
Regarding `Cc1cc(C(=O)N2CC3(C2)CC(F)(F)C3)nnc1N1CCc2ncc(-n3cccn3)cc2C1` [Example 570, (6-(3-(1H-pyrazol-1-yl)-7,8-dihydro-1,6-naphthyridin-6(5H)-yl)-5-methylpyridazin-3-yl)(6,6-difluoro-2-azaspiro[3.3]heptan-2-yl)methanone], the Emax at 30 µM was found to be 84% and the EC50 turned out to be 340 nM.
In the same order, the values of `[2H]C([2H])([2H])c1cnc2c(c1)CN(c1nnc(C(=O)N3CC4(COC4)C3)cc1C)CC2` [Example 577, (5-methyl-6-(3-(methyl-d3)-7,8-dihydro-1,6-naphthyridin-6(5H)-yl)pyridazin-3-yl)(2-oxa-6-azaspiro[3.3]heptan-6-yl)methanone] are 70% and 109 nM.
For `Cc1cc(C#N)cnc1N1CCc2ncc(N3CCCn4ccnc43)cc2C1` [Example 411, 6-(3-(6,7-dihydroimidazo[1,2-a]pyrimidin-8(5H)-yl)-7,8-dihydro-1,6-naphthyridin-6(5H)-yl)-5-methylnicotinonitrile] the same measures were 47% and 2250 nM.
With `Cc1cc(C(=O)N2CC(C)(O)C2)nnc1N1CCc2ncc(CC(F)(F)F)cc2C1` [Example 588, (3-hydroxy-3-methylazetidin-1-yl)(5-methyl-6-(3-(2,2,2-trifluoroethyl)-7,8-dihydro-1,6-naphthyridin-6(5H)-yl)pyridazin-3-yl)methanone], the Emax at 30 µM was determined as 93% and the EC50 was found to be 322 nM.
In the same order, the values of `Cc1cc(C#N)cnc1N1CCc2ncc(Nc3ncccc3F)cc2C1` [compound 167, 6-[3-[(3-fluoro-2-pyridyl)amino]-7,8-dihydro-5H-1,6-naphthyridin-6-yl]-5-methyl-pyridine-3-carbonitrile] are 91% and 265 nM.
In the same order, the values of `Cc1cc(C#N)cnc1N1Cc2cc(C(F)(F)F)cnc2C(C)C1` (stereo not shown) [Example 347, 5-methyl-6-(8-methyl-3-(trifluoromethyl)-7,8-dihydro-1,6-naphthyridin-6(5H)-yl)nicotinonitrile] are 82% and 992 nM.
In the same order, the values of `Cc1cnc2c(c1)CN(c1nnc(C(=O)NCc3ccncc3C)c(C)c1C)CC2` [Example 472, 4,5-dimethyl-6-(3-methyl-7,8-dihydro-1,6-naphthyridin-6(5H)-yl)-N-((3-methylpyridin-4-yl)methyl)pyridazine-3-carboxamide] are 99% and 71 nM.
